Data taken from patent publication US9120785B2, “Pyridyl aminopyridines as Syk inhibitors” (Merck Sharp & Dohme Corp., priority 2011, dated 2015).
pIC50: −log10 of the molar value.

Molecular target: recombinant human GST-Syk (Homo sapiens (Human), UniProt P43405)
Test: Homogeneous Time-Resolved Fluorescence (HTRF) assay for the recombinant human Syk enzyme
Format: biochemical
Details: recombinant human GST-Syk 5 pM, ATP 25 μM, 10-dose titration; read-out: rhSyk (nM) IC50
Experimental: Homogeneous Time-Resolved Fluorescence (HTRF) Assay for the Recombinant Human Syk Enzyme:
A recombinant GST-hSyk fusion protein was used to measure potency of compounds to inhibit human Syk activity. The recombinant human GST-Syk ([…] #08-176) (5 pM final concentration) was incubated with various concentrations of the inhibitor diluted in DMSO (0.1% final concentration) for 10 minutes at room temperature in 15 mM Tris-HCl (pH 7.5), 0.01% tween 20, 2 mM DTT in 384 well plate format. To initiate the reaction the biotinylated substrate peptide (250 nM final concentration) that contains the phosphorylation site for Syk was added with magnesium (5 mM final concentration) and ATP (25 μM final concentration). Final volume of the reaction was 10 μL. Phosphorylation of the peptide was allowed to proceed for 45 minutes at room temperature. To quench the reaction and detect the phosphorylated product, 2 nM of a Europium-anti-phosphotyrosine antibody (Perkin Elmer #AD0161) and 70 nM SA-APC (Perkin-Elmer #CR130-100) were added together in 15 mM Tris pH 7.5, 40 mM EDTA, 0.01% tween 20. Final volume of the quenching solution was 10 μL. The resulting HTRF signal was measured after 30 minutes on an EnVision (Perkin-Elmer) reader using a time-resolved fluorescence protocol.

IC50 [nM]	SMILES
2.9	CCC(O)(c1ncc(-c2cc(C)cc(Nc3cc(C4CC4)ccn3)n2)s1)[C@H]1CC[C@H](C(=O)O)CC1 (single isomer, unassigned) [Example 1, Enantiomer 1, trans-4-[1-(5-{6-[(4-cyclopropylpyridin-2-yl)amino]-4-methylpyridin-2-yl}-1,3-thiazol-2-yl)-1-hydroxypropyl]cyclohexanecarboxylic acid]
278	CCCCOC(=O)[C@H]1CC[C@H]([C@@](C)(O)c2ncc(-c3cc(C)cc(Nc4cc(C)c(F)cn4)n3)s2)CC1 (single isomer, unassigned) [Example 9, Enantiomer 1, butyl trans-4-[1-(5-{6-[(5-fluoro-4-methylpyridine-2-yl)amino]-4-methylpyridine-2-yl}-1,3-thiazol-2-yl)-1-hydroxyethyl]cyclohexanecarboxylate]
0.5	Cc1cc(Nc2cc(C(F)F)ccn2)nc(-c2cnc(C(C)(O)[C@H]3CC[C@H](C(=O)O)CC3)s2)c1 (single isomer, unassigned) [Example 14-4, trans-4-{1-[5-(6-{[4-(difluoromethyl)pyridin-2-yl]amino}-4-methylpyridin-2-yl)-1,3-thiazol-2-yl]-1-hydroxyethyl}cyclohexanecarboxylic acid]

Same assay, conditions: recombinant human GST-Syk 5 pM, ATP 25 μM; class symbols; read-out: rhSyk activity (IC50)

pIC50	SMILES
≥ 7.00	CC(O)(c1ncc(-c2cccc(Nc3cc(C(F)F)ccn3)n2)s1)[C@H]1CC[C@H](C(=O)O)CC1 (relative stereo) [Example 14-42, trans-4-{1-[5-(6-{[4-(difluoromethyl)pyridin-2-yl]amino}pyridin-2-yl)-1,3-thiazol-2-yl]-1-hydroxyethyl}cyclohexanecarboxylic acid]
≥ 7.00	CC(C)c1ccnc(Nc2cccc(-c3cnc(C(C)(O)[C@H]4CC[C@H](C(=O)O)CC4)s3)n2)c1 (relative stereo) [Example 14-43, trans-4-{1-hydroxy-1-[5-(6-{[4-(propan-2-yl)pyridin-2-yl]amino}pyridin-2-yl)-1,3-thiazol-2-yl]ethyl}cyclohexanecarboxylic acid]
≥ 7.00	CCC(O)(c1ncc(-c2cc(C)cc(Nc3cc(C4CC4)ccn3)n2)s1)[C@H]1CC[C@H](C(=O)O)CC1 (single isomer, unassigned) [Example 1, Enantiomer 1, trans-4-[1-(5-{6-[(4-cyclopropylpyridin-2-yl)amino]-4-methylpyridin-2-yl}-1,3-thiazol-2-yl)-1-hydroxypropyl]cyclohexanecarboxylic acid]
≥ 7.00	CCC(O)(c1ncc(-c2cc(C)cc(Nc3cc(C4CC4)ccn3)n2)s1)[C@H]1CC[C@H](C(N)=O)CC1 (single isomer, unassigned) [Example 2, Enantiomer 1, trans-4-[1-(5-{6-[(4-cyclopropylpyridin-2-yl)amino]-4-methylpyridin-2-yl}-1,3-thiazol-2-yl)-1-hydroxypropyl]cyclohexanecarboxamide]
≥ 7.00	Cc1cc(Nc2cccc(-c3cnc(C(C)(O)[C@H]4CC[C@H](C(=O)O)CC4)s3)n2)ncc1F (single isomer, unassigned) [Example 5, trans-4-[(1R or 1S)-1-(5-{6-[(5-Fluoro-4-methylpyridin-2-yl)amino]pyridin-2-yl}-1,3-thiazol-2-yl)-1-hydroxyethyl]cyclohexanecarboxylic acid]
≥ 7.00	Cc1cc(Nc2cccc(-c3cnc(C(C)(O)[C@H]4CC[C@H](C(=O)O)CC4)s3)n2)ncc1F (single isomer, unassigned) [Example 6, trans-4-[(1R or 1S)-1-(5-{6-[(5-Fluoro-4-methylpyridin-2-yl)amino]pyridin-2-yl}-1,3-thiazol-2-yl)-1-hydroxyethyl]cyclohexanecarboxylic acid]
≥ 7.00	CC(O)(c1ncc(-c2cccc(Nc3cc(C(F)(F)F)ccn3)n2)s1)[C@H]1CC[C@H](C(=O)O)CC1 (single isomer, unassigned) [Example 7, trans-4-{(1R or 1S)-1-hydroxy-1-[5-(6-{[4-(trifluoromethyl)pyridin-2-yl]amino}pyridin-2-yl)-1,3-thiazol-2-yl]ethyl}cyclohexanecarboxylic acid]
≥ 7.00	CC(O)(c1ncc(-c2cccc(Nc3cc(C(F)(F)F)ccn3)n2)s1)[C@H]1CC[C@H](C(=O)O)CC1 (single isomer, unassigned) [Example 8, trans-4-{(1R or 1S)-1-Hydroxy-1-[5-(6-{[4-(trifluoromethyl)pyridin-2-yl]amino}pyridin-2-yl)-1,3-thiazol-2-yl]ethyl}cyclohexanecarboxylic acid]
6.00 to 7.00	CCCCOC(=O)[C@H]1CC[C@H]([C@@](C)(O)c2ncc(-c3cc(C)cc(Nc4cc(C)c(F)cn4)n3)s2)CC1 (single isomer, unassigned) [Example 9, Enantiomer 1, butyl trans-4-[1-(5-{6-[(5-fluoro-4-methylpyridine-2-yl)amino]-4-methylpyridine-2-yl}-1,3-thiazol-2-yl)-1-hydroxyethyl]cyclohexanecarboxylate]
6.00 to 7.00	CCCCOC(=O)[C@H]1CC[C@H]([C@@](C)(O)c2ncc(-c3cc(C)cc(Nc4cc(C)c(F)cn4)n3)s2)CC1 (single isomer, unassigned) [Example 9, Enantiomer 2, butyl trans-4-[1-(5-{6-[(5-fluoro-4-methylpyridine-2-yl)amino]-4-methylpyridine-2-yl}-1,3-thiazol-2-yl)-1-hydroxyethyl]cyclohexanecarboxylate]
6.00 to 7.00	CCCCOC(=O)[C@H]1CC[C@H](C(C)(O)c2ncc(-c3cc(C)cc(Nc4cc(C(F)(F)F)ccn4)n3)s2)CC1 (single isomer, unassigned) [Example 14, Step 1, butyl trans-4-{(1R or 1S)-1-hydroxy-1-[5-(4-methyl-6-{[4-(trifluoromethyl)pyridin-2-yl]amino}pyridin-2-yl)-1,3-thiazol-2-yl]ethyl}cyclohexanecarboxylate]
≥ 7.00	Cc1cc(Nc2cc(C(F)F)ccn2)nc(-c2cnc(C(C)(O)[C@H]3CC[C@H](C(=O)O)CC3)s2)c1 (single isomer, unassigned) [Example 14-4, trans-4-{1-[5-(6-{[4-(difluoromethyl)pyridin-2-yl]amino}-4-methylpyridin-2-yl)-1,3-thiazol-2-yl]-1-hydroxyethyl}cyclohexanecarboxylic acid]
≥ 7.00	Cc1cc(Nc2cc(C(F)(F)F)ccn2)nc(-c2cnc(C(O)(C3CC3)[C@H]3CC[C@H](C(=O)O)CC3)s2)c1 (single isomer, unassigned) [Example 14-17, trans-4-{cyclopropyl(hydroxy)[5-(4-methyl-6-{[4-(trifluoromethyl)pyridin-2-yl]amino}pyridin-2-yl)-1,3-thiazol-2-yl]methyl}cyclohexanecarboxylic acid]
≥ 7.00	Cc1cc(Nc2cc(C(F)(F)F)ccn2)nc(-c2cnc(C(O)(C3CC3)[C@H]3CC[C@H](C(=O)O)CC3)s2)c1 (single isomer, unassigned) [Example 14-18, trans-4-{cyclopropyl(hydroxy)[5-(4-methyl-6-{[4-(trifluoromethyl)pyridin-2-yl]amino}pyridin-2-yl)-1,3-thiazol-2-yl]methyl}cyclohexanecarboxylic acid]
≥ 7.00	Cc1cc(Nc2cc(C(F)(F)F)ccn2)nc(-c2cnc(C(O)([C@H]3CC[C@H](C(=O)O)CC3)C(F)(F)F)s2)c1 (single isomer, unassigned) [Example 14-19, trans-4-{2,2,2-trifluoro-1-hydroxy-1-[5-(4-methyl-6-{[4-(trifluoromethyl)pyridin-2-yl]amino}pyridin-2-yl)-1,3-thiazol-2-yl]ethyl}cyclohexanecarboxylic acid]
≥ 7.00	Cc1cc(Nc2cc(C(F)(F)F)ccn2)nc(-c2cnc(C(O)([C@H]3CC[C@H](C(=O)O)CC3)C(F)(F)F)s2)c1 (single isomer, unassigned) [Example 14-20, trans-4-{2,2,2-trifluoro-1-hydroxy-1-[5-(4-methyl-6-{[4-(trifluoromethyl)pyridin-2-yl]amino}pyridin-2-yl)-1,3-thiazol-2-yl]ethyl}cyclohexanecarboxylic acid]
≥ 7.00	CCC(O)(c1ncc(-c2cc(C)cc(Nc3cc(OC(C)C)ccn3)n2)s1)[C@H]1CC[C@H](C(=O)O)CC1 (single isomer, unassigned) [Example 14-21, trans-4-{1-hydroxy-1-[5-(4-methyl-6-{[4-(propan-2-yloxy)pyridin-2-yl]amino}pyridin-2-yl)-1,3-thiazol-2-yl]propyl}cyclohexanecarboxylic acid]
≥ 7.00	CCC(O)(c1ncc(-c2cc(C)cc(Nc3cc(OC(C)C)ccn3)n2)s1)[C@H]1CC[C@H](C(=O)O)CC1 (single isomer, unassigned) [Example 14-22, trans-4-{1-hydroxy-1-[5-(4-methyl-6-{[4-(propan-2-yloxy)pyridin-2-yl]amino}pyridin-2-yl)-1,3-thiazol-2-yl]propyl}cyclohexanecarboxylic acid]
≥ 7.00	Cc1cc(Nc2cc(OC(C)C)ccn2)nc(-c2cnc(C(O)(C3CC3)[C@H]3CC[C@H](C(=O)O)CC3)s2)c1 (single isomer, unassigned) [Example 14-23, trans-4-{cyclopropyl(hydroxy)[5-(4-methyl-6-{[4-(propan-2-yloxy)pyridin-2-yl]amino}pyridin-2-yl)-1,3-thiazol-2-yl]methyl}cyclohexanecarboxylic acid]
≥ 7.00	Cc1cc(Nc2cc(OC(C)C)ccn2)nc(-c2cnc(C(O)(C3CC3)[C@H]3CC[C@H](C(=O)O)CC3)s2)c1 (single isomer, unassigned) [Example 14-24, trans-4-{cyclopropyl(hydroxy)[5-(4-methyl-6-{[4-(propan-2-yloxy)pyridin-2-yl]amino}pyridin-2-yl)-1,3-thiazol-2-yl]methyl}cyclohexanecarboxylic acid]
≥ 7.00	Cc1cc(Nc2cc(OC(C)C)ccn2)nc(-c2cnc(C(O)([C@H]3CC[C@H](C(=O)O)CC3)C(F)(F)F)s2)c1 (single isomer, unassigned) [Example 14-25, trans-4-{2,2,2-trifluoro-1-hydroxy-1-[5-(4-methyl-6-{[4-(propan-2-yloxy)pyridin-2-yl]amino}pyridin-2-yl)-1,3-thiazol-2-yl]ethyl}cyclohexanecarboxylic acid]
